Reference: article PMC10893631, “Receptor-based pharmacophore modeling, molecular docking, synthesis and biological evaluation of novel VEGFR-2, FGFR-1, and BRAF multi-kinase inhibitors” (BMC Chemistry, 2024)
Like-named read-outs stand apart in the source and are kept apart here.

What was measured:
[1] = test system: NCI panel of 60 tumor cell lines; assay: NCI SRB growth inhibition, whole panel mean (single dose 10 µM / five-dose); type: cell-based, human; details: for GI50: mean over NCI cancer cell lines, five-dose
Description: Screening of cytotoxic activity against a panel of sixty human tumor cell lines The selected compounds by NCI were evaluated for their anticancer activity in a two- stage process. […] Then, the output from the single dose screen is reported as a mean graph. […] Assay protocol. […] For a typical screening experiment, cells are inoculated into 96 well microtiter plates in 100 µL at plating densities ranging from 5000 to 40,000 cells/well depending on the doubling time of individual cell lines. […] After 24 h, two plates of each cell line are fixed in situ with TCA, to represent a measurement of the cell population for each cell line at the time of drug addition (Tz). The experimental drugs are solubilized in dimethyl sulfoxide at 400-fold the desired final maximum test concentration and stored frozen prior to use. At the time of drug addition, an aliquot of frozen concentrate is thawed and diluted to twice the desired final maximum test concentration with complete medium containing 50 µg/mL gentamicin. Additional four, 10-fold or ½ log serial dilutions are made to provide a total of five drug concentrations plus control. Aliquots of 100 mL of these different drug dilutions are added to the appropriate microtiter wells already containing […] of medium, resulting in the required final drug concentrations. […] For adherent cells, the assay is terminated by the addition of cold TCA. […] The supernatant is discarded, and the plates are washed five times with tap water and air dried. Sulforhodamine B (SRB) solution ([…]) at 0.4% (w/v) in 1% acetic acid is added to each well, and plates are incubated for 10 min at room temperature. After staining, unbound dye is removed by washing five times with 1% acetic acid and the plates are air dried. […] Using the seven absorbance measurements [time zero, (Tz), control growth, (C), and test growth in the presence of drug at the five concentration levels (Ti)], the percentage growth is calculated at each of the drug concentrations levels. Percentage growth inhibition is calculated as: [(Ti Tz)/(C–Tz)] x 100 for concentrations for which Ti>/=Tz and [(Ti-Tz)/Tz] x 100 for concentrations for which Ti < Tz. Three dose response parameters are calculated for each experimental agent. […] The drug concentration resulting in total growth inhibition (TGI) is calculated from Ti = Tz. […] Values are calculated for each of these three parameters if the level of activity is reached; however, if the effect is not reached or is exceeded, the value for that parameter is expressed as greater or less than the maximum or minimum concentration tested.

VEGFR-2 = molecular target: T1, VEGFR-2 (Homo sapiens, UniProt P35968); assay: VEGFR-2 kinase assay kit (BPS), Kinase-Glo Max luminescence; type: biochemical; details: VEGFR-2, single dose 10 µM, duplicate, mean ± SD
T1 construct: purchased BPS Biosciences 40325
Description: 2. Biochemical kinase assay procedure
The inhibitory activity against different kinases was determined using kinase kits […]
from BPS Biosciences and kinase-Glo Max luminescence kinase assay kit (Promega).
The assay was carried out according to the protocol provided by the manufacturer. A stock solution of the synthesized derivatives in 100% DMSO was prepared. Subsequently, the compounds were diluted to 10% DMSO.
A master mixture was prepared according to the number of wells. For VEGFR-2 and FGFR-1 biochemical assays each well include 6 μl of 5x Kinase Buffer 1 + 1 μl of 500 μM ATP + 1 μl of PTK Substrate (Poly-Glu,Tyr 4:1) (10 mg/ml) + 17 μl of distilled water. For BRAF assay each well include 6 μl of 5x Kinase Buffer 1 + 1 μl of ATP (500 μM) + 10 μl of 5X Raf substrate + 8 μl of distilled water. 1x Kinase buffer 1 was prepared by mixing 600 μl of 5x Kinase Buffer 1 with 2400 μl water to give 3 mL. Kinases were thawed on ice and were diluted with 1x Kinase Buffer 1.
To start the biochemical reaction, 25 µL of the master mixture was added to each well in 96 well plate. 5 µL of 10% DMSO was added to positive control wells and blank wells. 5 µL of diluted inhibitor was added to each well labelled with the test inhibitor so that the final concentration of DMSO is 1% in all reactions. Then 20 µL of (1 ng / μl) in case of VEGFR-2 and FGFR-1 or (2.5 ng/μl) in case of BRAF in 1x kinase buffer was added to positive control wells and wells labelled with the inhibitor, while 20 µL 1x kinase buffer 1 was added to the […]
The plate was incubated at 30 °C for 45 min. Subsequently, 50 μl of Kinase-Glo Max luminescence reagent was added to each well and the plate was covered with aluminum foil and incubated at room temperature 15 min. Finally, the luminescence was recorded using multimode microplate reader. Kinase activity assays were performed in duplicate at each […]
The luminescence data were analyzed as follows. The difference between luminescence intensities in the absence of kinase (Lut) and in the presence of kinase (Luc) was defined as 100 % activity (Lut – Luc). Using luminescence signal (Lu) in the presence of the compound, % activity was calculated as: % activity = {(Lut - Lu)/(Lut - Luc)}×100%. The […]
concentration of the test compounds required to reduce the kinase activity by 50% was determined from dose-response curves and recorded as their IC50. […]

U251 = assay: NCI SRB growth inhibition (single dose 10 µM / five-dose); type: cell-based, human; details: for inhibition at 10 µM: read-out: GI%; for GI50: U251, CNS cancer, five-dose
Outline: (§1)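 Seeding varied with cell doubling time (5000–40,000 cells/well). Dilutions were 10-fold or ½ log, five levels in total. Sulforhodamine B staining (0.4% w/v, 10 min, room temperature) of TCA-fixed cells measured growth.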

K-562 = assay: as above; type: cell-based, human; details: for inhibition at 10 µM: read-out: GI%; for GI50: K-562, Leukemia, five-dose
Outline: as §1

PC-3 = assay: as above; type: cell-based, human; details: for inhibition at 10 µM / GI50: Homo sapiens; for inhibition at 10 µM: read-out: GI%; for GI50: PC-3, Prostate cancer, five-dose
Outline: as §1

NCI-H522 = assay: as above; type: cell-based, human; details: for inhibition at 10 µM: read-out: GI%; for GI50: NCI-H522, Non-small cell lung cancer, five-dose
Outline: as §1

UO-31 = assay: as above; type: cell-based, human; details: for inhibition at 10 µM: read-out: GI%; for GI50: UO-31, Renal cancer, five-dose
Outline: as §1

DU-145 = assay: as above; type: cell-based, human; details: for inhibition at 10 µM: read-out: GI%; for GI50: DU-145, Prostate cancer, five-dose
Outline: as §1

HCT-116 = assay: as above; type: cell-based, human; details: for inhibition at 10 µM: read-out: GI%
Outline: as §1

HL-60(TB) = assay: as above; type: cell-based, human; details: for inhibition at 10 µM: read-out: GI%; for GI50: HL-60(TB), Leukemia, five-dose
Outline: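 After a 24 h pre-incubation, cells received drug at five serially diluted concentrations; two untreated plates per line were TCA-fixed at drug addition as Tz. Adherent plates were fixed with cold TCA, stained with SRB and washed with 1% acetic acid.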

[2] = Homo sapiens, 10 µM, mean over NCI 60 cell lines, > 100% = lethal effect, read-out: mean growth inhibition % (GI%)
[3] = Homo sapiens, mean over NCI panel of 60 tumor cell lines, 10 µM, read-out: Mean growth inhibition %
[4] = Homo sapiens, U-251, U251 (CNS cancer), 10 µM
[5] = Homo sapiens, K562, K-562 (Leukemia), 10 µM
[6] = Homo sapiens, NCI-H522 (Non-small cell lung cancer), 10 µM
[7] = Homo sapiens, UO-31 (Renal cancer), 10 µM
[8] = Homo sapiens, DU-145 (Prostate cancer), 10 µM
[9] = Homo sapiens, HL-60(TB) (Leukemia), 10 µM

T1 sequence (P35968 20-1356): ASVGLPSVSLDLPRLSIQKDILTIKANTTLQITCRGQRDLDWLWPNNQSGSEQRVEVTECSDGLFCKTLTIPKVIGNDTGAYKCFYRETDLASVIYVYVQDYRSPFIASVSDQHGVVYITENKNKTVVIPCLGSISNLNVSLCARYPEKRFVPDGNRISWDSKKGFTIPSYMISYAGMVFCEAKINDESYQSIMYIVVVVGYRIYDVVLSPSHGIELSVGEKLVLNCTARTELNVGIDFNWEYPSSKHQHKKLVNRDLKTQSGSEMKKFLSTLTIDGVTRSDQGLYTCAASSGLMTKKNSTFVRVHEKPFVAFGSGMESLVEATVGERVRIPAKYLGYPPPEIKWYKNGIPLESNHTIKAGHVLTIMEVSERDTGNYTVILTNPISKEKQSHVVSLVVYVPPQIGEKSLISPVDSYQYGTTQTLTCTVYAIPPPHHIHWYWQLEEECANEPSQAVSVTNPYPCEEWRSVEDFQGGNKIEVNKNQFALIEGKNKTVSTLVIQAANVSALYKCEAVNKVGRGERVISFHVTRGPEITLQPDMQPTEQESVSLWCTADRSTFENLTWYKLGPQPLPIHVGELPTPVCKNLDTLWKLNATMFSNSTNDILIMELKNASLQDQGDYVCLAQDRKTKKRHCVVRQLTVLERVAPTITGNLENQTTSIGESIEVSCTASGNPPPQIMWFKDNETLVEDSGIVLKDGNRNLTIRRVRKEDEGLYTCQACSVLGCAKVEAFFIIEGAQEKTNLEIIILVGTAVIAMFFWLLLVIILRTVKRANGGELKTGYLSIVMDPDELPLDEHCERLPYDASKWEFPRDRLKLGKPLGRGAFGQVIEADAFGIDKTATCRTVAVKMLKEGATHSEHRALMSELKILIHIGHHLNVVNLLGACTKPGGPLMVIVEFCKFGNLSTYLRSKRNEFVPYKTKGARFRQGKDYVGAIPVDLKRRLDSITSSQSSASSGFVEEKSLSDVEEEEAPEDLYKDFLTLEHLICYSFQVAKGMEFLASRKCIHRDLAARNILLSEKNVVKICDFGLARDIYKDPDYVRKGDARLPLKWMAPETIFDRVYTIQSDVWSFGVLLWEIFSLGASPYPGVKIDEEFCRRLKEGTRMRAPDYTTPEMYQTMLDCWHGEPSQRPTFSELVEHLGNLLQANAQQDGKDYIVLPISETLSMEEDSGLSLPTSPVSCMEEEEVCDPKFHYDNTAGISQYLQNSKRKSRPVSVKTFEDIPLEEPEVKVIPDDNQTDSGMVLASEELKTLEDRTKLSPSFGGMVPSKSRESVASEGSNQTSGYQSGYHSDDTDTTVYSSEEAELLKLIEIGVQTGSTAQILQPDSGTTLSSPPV

| Molecule | inhibition at 10 µM [1, 2] | GI50 ([1]; Homo sapiens) | inhibition at 10 µM [1, 3] | inhibition at 10 µM (VEGFR-2) | inhibition at 10 µM (U251; [4]) | GI50 (U251; Homo sapiens, U-251) | inhibition at 10 µM (K-562; [5]) | GI50 (K-562; Homo sapiens, K562) | inhibition at 10 µM (PC-3; PC-3 (Prostate cancer), 10 µM) | GI50 (PC-3) | inhibition at 10 µM (NCI-H522; [6]) | GI50 (NCI-H522; Homo sapiens) | inhibition at 10 µM (UO-31; [7]) | GI50 (UO-31; Homo sapiens) | inhibition at 10 µM (DU-145; [8]) | GI50 (DU-145; Homo sapiens) | GI50 (HCT-116; Homo sapiens, HCT-116) | inhibition at 10 µM (HCT-116; Homo sapiens, HCT-116) | inhibition at 10 µM (HL-60(TB); [9]) | GI50 (HL-60(TB); Homo sapiens) | also measured |
| --- | --- | --- | --- | --- | --- | --- | --- | --- | --- | --- | --- | --- | --- | --- | --- | --- | --- | --- | --- | --- | --- |
| COc1cccc(C=NNC(=O)c2ccc3[nH]c(-c4ccc(Cl)cc4)nc3c2)c1O [8r, 2-(4-Chlorophenyl)-N'-(2-hydroxy-3-methoxybenzylidene)-1H-benzo[d]imidazole-5-carbohydrazide] | > 100% | 3.39 µM | > 100% | 25.7 ± 1.87% | > 100% | 1500 nM | > 100% | 490 nM | > 100% | 1.62 µM | > 100% | 1170 nM | > 100% | 2070 nM | > 100% | 1990 nM | 1190 nM | > 100% | > 100% | 1.95 µM | – |
| COc1ccc(C=NNC(=O)c2ccc3[nH]c(-c4ccc(Cl)cc4)nc3c2)cc1O [8s, 2-(4-Chlorophenyl)-N'-(3-hydroxy-4-methoxybenzylidene)-1H-benzo[d]imidazole-5-carbohydrazide] | 49.5% | – | 49.5% | 26.7 ± 1.83% | 75.2% | – | 50.3% | – | 56.5% | – | 30.9% | – | 8.7% | – | 16.2% | – | – | 69.5% | 45.3% | – | – |
| COc1ccc(OC)c(C=NNC(=O)c2ccc3[nH]c(-c4ccc(Cl)cc4)nc3c2)c1 [8t, 2-(4-Chlorophenyl)-N'-(2,5-dimethoxybenzylidene)-1H-benzo[d]imidazole-5-carbohydrazide] | 33.5% | – | 33.5% | 34 ± 2.57% | 25.7% | – | 52.9% | – | 58.5% | – | 40.9% | – | 31.9% | – | 52% | – | – | 43.1% | 12.9% | – | – |
| COc1cc(C=NNC(=O)c2ccc3[nH]c(-c4ccc(Cl)cc4)nc3c2)cc(OC)c1OC [8u, 2-(4-Chlorophenyl)-N'-(3,4,5-trimethoxybenzylidene)-1H-benzo[d]imidazole-5-carbohydrazide] | > 100% | 7.98 µM | > 100% | 80 ± 3.98% | > 100% | 2590 nM | > 100% | 1960 nM | > 100% | 5.73 µM | > 100% | 4900 nM | 41.1% | > 100000 nM | > 100% | 6770 nM | 3260 nM | > 100% | 67.8% | 3.9 µM | – |
| N'-(2-Hydroxybenzylidene)-2-phenyl-1H-benzo[d]imidazole-5-carbohydrazide [8a] | – | – | – | – | – | – | – | – | – | – | – | – | – | – | – | – | – | – | – | – | mean growth inhibition % (GI%) ([1]; 10 µM, mean over NCI 60 cell lines, > 100% = lethal effect): 97.73%; GI50 [1]: 3 µM; Mean growth inhibition % ([1]; mean over NCI panel of 60 tumor cell lines, 10 µM): 97.73%; % Inhibition (VEGFR-2): 43.03 ± 2.32%; GI% (U251; U251 (CNS cancer), 10 µM): L (GI% > 100); GI50 (U251): 2110 nM; GI% (K-562; K-562 (Leukemia), 10 µM): 78.58%; GI50 (K-562): 3390 nM; GI% (PC-3; PC-3 (Prostate cancer), 10 µM): 90.74%; GI% (NCI-H522; NCI-H522 (Non-small cell lung cancer), 10 µM): L (GI% > 100); GI50 (NCI-H522): 1870 nM; GI% (UO-31; UO-31 (Renal cancer), 10 µM): 86.22%; GI50 (UO-31): 600 nM; GI% (DU-145; DU-145 (Prostate cancer), 10 µM): L (GI% > 100); GI50 (DU-145): 2750 nM; GI% (HCT-116; HCT-116 (Colon cancer), 10 µM): L (GI% > 100); GI50 (HCT-116; HCT-116, Colon cancer, five-dose): 880 nM; GI% (HL-60(TB); HL-60(TB) (Leukemia), 10 µM): 95.58%; GI50 (HL-60(TB)): 3.08 µM |
